Converted amounts (≈) assume the structure as drawn. “Also recorded” adds a separate entry of the source.
What was measured:
[1] = test system: endothelial nitric oxide synthase (eNOS); conditions: in vitro, cited from earlier work
Ldlr−/− mice [2] = test: Atherosclerosis in Ldlr−/− mice on Western-type diet, plaque area at the aortic root, MMF alone; format: in vivo; conditions: for reduction of atherosclerosis (AS), percentage of aortic sinus occluded by plaque: 12 weeks
Text: (§1) Additional secondary endpoints examined were plasma levels of cholesterol, HDL cholesterol, triglycerides, and phospholipids.

Ldlr−/− mice [3] = test: Serum/plasma lipid levels in Ldlr−/− mice on Western-type diet, MMF alone; format: in vivo
Text: as §1

[4] = cited from earlier work
[5] = following oral or intravenous administration; cited from earlier work
allograft survival = conditions: mice; cited from earlier work
[6] = test system: antibody response to sheep red blood cells; conditions: mice; cited from earlier work

CC[C@H](C)C(=O)O[C@H]1C[C@@H](C)C=C2C=C[C@H](C)[C@H](CC[C@@H]3C[C@@H](O)CC(=O)O3)[C@H]21 [lovastatin]
upregulation of eNOS expression ([1]; cholesterol clamped conditions): almost fourfold | downregulation of eNOS by oxidized LDL [1]: completely prevent

COc1c(C)c2c(c(O)c1C/C=C(\C)CCC(=O)OCCN1CCOCC1)C(=O)OC2 [MMF, morpholinoethyl E-6-(1,3-dihydro-4-hydroxy-6-methoxy-7-methyl-3-oxo-5-isobenzofuranyl)-4-methyl-4-hexenoate]
reduction of atherosclerosis (AS), percentage of aortic sinus occluded by plaque (Ldlr−/− mice [2]; MMF 6 mg/kg/day in diet, male Ldlr−/− mice): 18% | reduction of atherosclerosis (AS), percentage of aortic sinus occluded by plaque (Ldlr−/− mice [2]; MMF 15 mg/kg/day in diet, male Ldlr−/− mice): 30% | reduction of atherosclerosis (AS), percentage of aortic sinus occluded by plaque (Ldlr−/− mice [2]; MMF 30 mg/kg/day in diet, male Ldlr−/− mice): 28% | reduction of atherosclerosis (AS), percentage of aortic sinus occluded by plaque (Ldlr−/− mice [2]; MMF 100 mg/kg/day in diet, male Ldlr−/− mice): 64% | dose response of the reduction of atherosclerosis (Ldlr−/− mice [2]; MMF 6, 15, 30 and 100 mg/kg/day, male Ldlr−/− mice): dose-dependent | effect on atherosclerosis / atheromatous plaques (Ldlr−/− mice [2]; MMF alone, doses lower than used for preventing organ rejection, Ldlr−/− mice): reduce atherosclerosis; also recorded: reduction of atheromatous plaques | HDL cholesterol levels (Ldlr−/− mice [3]; Ldlr−/− mice): no effect | total cholesterol levels (Ldlr−/− mice [3]; Ldlr−/− mice): no effect | serum cholesterol levels (Ldlr−/− mice [3]; male Ldlr−/− mice): did not lower | serum phospholipid levels (Ldlr−/− mice [3]; male Ldlr−/− mice): lower; also recorded: decreases | serum triglyceride levels (Ldlr−/− mice [3]; male Ldlr−/− mice): lower; also recorded: decreases | solubility ([4]; in 5% dextrose solution): 65.8 mg/mL (≈ 152 mM) | solubility in water ([4]; water): insoluble | metabolism to the active metabolite MPA [5]: rapidly and completely metabolized | effective dose for in vivo prolongation of allograft survival (allograft survival): about 80 mg/kg/day

COc1c(C)c2c(c(O)c1C/C=C(\C)CCC(=O)O)C(=O)OC2 [MPA, mycophenolic acid]
trend in aortic root lesions as a function of serum MPA levels (linear regression) (Ldlr−/− mice [2]; Ldlr−/− mice given MMF): statistically significant decreasing trend | ED50 for inhibiting the antibody reaction [6]: about 33 mg/kg/day

— patent US20110269755A1, “COMPOSITIONS AND METHODS FOR TREATING VASCULAR, AUTOIMMUNE, AND INFLAMMATORY DISEASES” (Aspreva International Ltd., priority 2006, published 2011)
